# PubChem BioAssay (NCI)
# Where “and” joins values, the source holds several entries; their conditions need not be identical. Equal values may be shown once.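 The compound was tested at five concentrations on cells cultured in 96-well plates, with a 48-hour exposure period. The concentration for 50% growth inhibition is given as GI50. TGI: concentration producing complete growth inhibition.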
# Tests used:
# Assay in all cases: NCI tumour cell line growth inhibition, 48 h
# CCRF-CEM leukemia = tested on: CCRF-CEM leukemia
# HCC-2998 colon = tested on: HCC-2998 colon
# HCT-15 colon = tested on: HCT-15 colon
# MCF7 breast = tested on: MCF7 breast
# NCI/ADR-RES ovarian = tested on: NCI/ADR-RES ovarian
# RXF 393 renal = tested on: RXF 393 renal
# SK-MEL-2 melanoma = tested on: SK-MEL-2 melanoma
# SK-MEL-28 melanoma = tested on: SK-MEL-28 melanoma
# SW-620 colon = tested on: SW-620 colon
# U251 CNS = tested on: U251 CNS
SMILES,TGI (CCRF-CEM leukemia) [µM],TGI (HCC-2998 colon),TGI (HCT-15 colon) [µM],TGI (MCF7 breast) [µM],TGI (NCI/ADR-RES ovarian) [µM],TGI (RXF 393 renal),TGI (SK-MEL-2 melanoma),TGI (SK-MEL-28 melanoma),TGI (SW-620 colon) [µM],TGI (U251 CNS) [µM],GI50 (CCRF-CEM leukemia),GI50 (HCC-2998 colon),GI50 (HCT-15 colon),GI50 (MCF7 breast),GI50 (NCI/ADR-RES ovarian),GI50 (RXF 393 renal),GI50 (SK-MEL-2 melanoma),GI50 (SK-MEL-28 melanoma),GI50 (SW-620 colon),GI50 (U251 CNS)
CC(=O)OCc1ccc(O)c(C=O)c1,> 100,> 100 µM,> 100,> 100,> 100,> 100 µM,> 100 µM,> 100 µM,> 100,> 100,,,,,,,,,,
COc1ccc2c3c(c4ccccc4cc13)C(=O)N(CCN(C)CCN)C2=O,0.22,1.65 µM,1.01,1.1,1.65,1.29 µM,18.5 µM,2.48 µM,1.32,1.21,0.021 µM,0.182 µM,0.0453 µM,0.0133 µM,0.116 µM,0.259 µM,0.887 µM,1.09 µM,0.0515 µM,0.0776 µM
O=C(NCCN1CCC(O)CC1)c1cc2c(o1)C(=O)c1ccccc1C2=O,> 30.1,0.451 µM,0.624,0.338,5.24,2.32 µM,2.21 µM,1.74 µM,1.05,1.14,0.578 µM,0.208 µM,0.21 µM,0.137 µM,1.52 µM,1.1 µM,0.518 µM,0.549 µM,0.31 µM,0.335 µM
N#C/C(=C\Nc1ccccn1)C(=O)c1ccco1,,> 100 µM,> 100,> 100,> 100,> 100 µM,> 100 µM,> 100 µM,> 100,> 100,,,,,,,,,,
Fc1cccc(CSc2ncnc3c2ncn3C2CCCS2)c1 (stereo not given),46.6,42.2 µM,> 100,63.7,96.7,92.2 µM,40.3 µM,50.8 µM,> 100,42.8,,,,,,,,,,
Nc1nc2ccc3[nH]ncc3c2c2c1CCCC2,12.5,3.62 µM,7.22,7.25,5.57,1.77 µM,5.35 µM,4.33 µM,10,13.4,2.7 µM,1.61 µM,1.88 µM,0.403 µM,1.75 µM,0.399 µM,2.12 µM,1.62 µM,1.55 µM,2.7 µM
Oc1ccc2ccccc2c1C1NN=C(c2ccccc2)S1 (stereo not given),> 100,16.6 µM,> 50.8,21.2,62.8,20 µM,14.9 µM,97.8 µM,> 100,48.5,0.359 µM,0.353 µM,0.399 µM,0.426 µM,0.383 µM,0.812 µM,0.41 µM,0.799 µM,0.806 µM,0.461 µM
C[C@]1(C(=O)O)N[C@H](C(=O)O)CS1,> 1000,> 1000 µM,> 1000,> 1000,> 1000,> 1000 µM,> 1000 µM,> 1000 µM,> 1000,> 1000,> 1000 µM,921 µM,> 1000 µM,> 1000 µM,> 1000 µM,> 1000 µM,> 1000 µM,> 1000 µM,> 1000 µM,> 1000 µM
COc1cc(-c2csc(NC(=O)Nc3cc(C(F)(F)F)cc(C(F)(F)F)c3)n2)cc(OC)c1OC,7.83,14.4 µM,10.9,11.8,12.1,6.17 µM,5.85 µM,12.6 µM,14.6,10.7,2.26 µM,3.81 µM,2.51 µM,2.41 µM,2.65 µM,2.13 µM,1.66 µM,3.02 µM,3.21 µM,2.73 µM
O=C(Nc1ccc2[nH]c(C(=O)N3CC(CCl)c4c3cc([N+](=O)[O-])c3ccccc43)cc2c1)c1cc2ccccc2o1 (stereo not given),377,> 1100 µM,> 1100,> 1100,> 1100,> 1100 µM,> 1100 µM,> 1100 µM,> 1100,> 1100,66.4 µM,57.7 µM,> 1100 µM,> 1100 µM,> 1100 µM,,> 1100 µM,> 1100 µM,> 1100 µM,> 1100 µM
c1ccc(Nn2c(CCCCCCCCc3nnc(COc4ccccc4)n3Nc3ccccc3)nnc2COc2ccccc2)cc1,,> 72.6 µM and 186 µM,> 300,> 300,> 300,98 µM and > 300 µM,> 63.4 µM and 252 µM,> 300 µM,> 300,> 300,2.91 µM,16.2 µM and 15.7 µM,9.88 µM and 5.62 µM,18.3 µM,11.5 µM and 20.6 µM,157 µM,13.8 µM and 25.5 µM,22.9 µM and 57.1 µM,9.55 µM and 11.8 µM,39.6 µM and 144 µM
CN1CCC(C(=O)Nc2n[nH]c3nc(-c4ccc(O)cc4)c(Br)cc23)CC1,> 25,5.72 µM and 8.32 µM,> 25,> 22,> 25,1.4 µM and 1.6 µM,2.32 µM and 5.75 µM,6.15 µM and 7.56 µM,> 25,> 25,0.835 µM and 0.996 µM,1.08 µM and 1.32 µM,6.77 µM and 9.83 µM,0.557 µM and 0.724 µM,24.9 µM and > 25 µM,0.442 µM and 0.485 µM,0.692 µM and 1.66 µM,1.21 µM and 2.46 µM,0.975 µM and 0.254 µM,0.661 µM and 0.848 µM
Clc1cccc(N2CCN(CCN3CCc4c([nH]c5ccccc45)C3c3cccnc3)CC2)c1 (stereo not given),> 100,> 76.9 µM,> 100,> 100,> 100,> 100 µM,> 100 µM,> 100 µM,> 100,> 100,,,,,,,,,,
c1cncc(-c2nc3ccccc3s2)c1,,> 100 µM,> 100,> 100,> 100,> 100 µM,> 100 µM,> 100 µM,> 100,> 100,,> 100 µM,> 100 µM,> 100 µM,> 100 µM,64.7 µM,> 100 µM,> 100 µM,> 100 µM,97 µM
